One data set has as its system Staphylococcus aureus. As to the kind of experiment: Antimicrobial activity against Staphylococcus aureus ATCC 25923 assessed as reduction of bacterial growth incubated for 18 hrs by CLSI protocol based broth microdilution method. Type of data set: functional. (Broth dilution looks for growth in wells or tubes with falling amounts of substance.)
The next data set concerns Bacillus subtilis. The data set can be described thus: Antimicrobial activity against Bacillus subtilis ATCC 23857 assessed as reduction of bacterial growth incubated for 18 hrs by CLSI protocol based broth microdilution method. Type of data set: functional.
The test system of data set [1] is Staphylococcus epidermidis. The data set can be described thus: Antimicrobial activity against Staphylococcus epidermidis ATCC 12228 assessed as reduction of bacterial growth incubated for 18 hrs by CLSI protocol based broth microdilution method. Type of data set: functional.
Another data set deals with Enterococcus faecalis. As to the kind of experiment: Antimicrobial activity against Enterococcus faecalis ATCC 29212 assessed as reduction of bacterial growth incubated for 18 hrs by CLSI protocol based broth microdilution method. Type of data set: functional.
A further data set deals with Klebsiella pneumoniae. As to the kind of experiment: Antimicrobial activity against Klebsiella pneumoniae ATCC 700603 assessed as reduction of bacterial growth incubated for 18 hrs by CLSI protocol based broth microdilution method. Type of data set: functional.
The next data set relates to Escherichia coli. As to the kind of experiment: Antimicrobial activity against Escherichia coli ATCC 25922 assessed as reduction of bacterial growth incubated for 18 hrs by CLSI protocol based broth microdilution method. Type of data set: functional.
In another data set the test system is Pseudomonas aeruginosa. The data set can be described thus: Antimicrobial activity against Pseudomonas aeruginosa ATCC 27853 assessed as reduction of bacterial growth incubated for 18 hrs by CLSI protocol based broth microdilution method. Type of data set: functional.
For a further data set, the system named is Erythrocyte. The data set can be described thus: Hemolytic activity in mouse red blood cells assessed as release of hemoglobin incubated for 1 hr by microplate reader method. Type of data set: toxicity, cell-based.
The nature of data set [2]: Cytotoxicity against human HK-2 cells assessed as reduction in cell viability incubated for 1 hr by resazurin based microplate reader method. Type of data set: toxicity. (In general: Alamar Blue is a resazurin reagent that responds to reducing activity.)

≈ marks a conversion by molar mass, not a printed value. Where a SMILES comes first, the peptide text is derived from it.

By MIC is commonly meant the smallest concentration in the dilution series that meets the test's criterion for growth inhibition. As usually defined, the CC50 is the concentration giving 50% cytotoxicity. On to `CC[C@H](C)[C@H](N)C(=O)N[C@@H](CCCNC(=N)N)C(=O)N[C@H](C(=O)N[C@@H](CCCNC(=N)N)C(=O)N[C@@H](CS)C(=O)N[C@@H](CCCNC(=N)N)C(=O)N[C@@H](CCCNC(=N)N)C(=O)N[C@@H](CCCNC(=N)N)C(=O)N[C@@H](Cc1ccccc1)C(=O)N[C@@H](CS)C(=O)N[C@@H](CCCNC(=N)N)C(=O)N[C@H](C(=O)N[C@@H](CCCNC(=N)N)C(=O)N[C@H](C(N)=O)[C@@H](C)CC)[C@@H](C)CC)[C@@H](C)CC` (H-IRIRCRRRFCRIRI-NH2), for which the MIC in the data set on Staphylococcus aureus is 8 µM (≈ 15.3 µg/mL); in the data set with Bacillus subtilis, 4 µM (≈ 7.67 µg/mL); in [1], 4 µM (≈ 7.67 µg/mL); in the data set on Enterococcus faecalis it was 16 µM (≈ 30.7 µg/mL); with Klebsiella pneumoniae it was 8 µM (≈ 15.3 µg/mL); with Escherichia coli it was 8 µM (≈ 15.3 µg/mL). Also, the MIC in the data set on Pseudomonas aeruginosa turned out to be 4 µM (≈ 7.67 µg/mL). Also, in the data set on Erythrocyte, the HC10 was above 256 µM. Further, in data set [2], the CC50 at 1 h was 37.1 µM.

Take `CC(C)C[C@H](NC(=O)[C@H](CCCNC(=N)N)NC(=O)CNC(=O)CNC(=O)[C@@H](N)CCCNC(=N)N)C(=O)N[C@@H](CS)C(=O)N[C@@H](Cc1ccc(O)cc1)C(=O)N[C@@H](CS)C(=O)N[C@@H](CCCNC(=N)N)C(=O)N[C@@H](CCCNC(=N)N)C(=O)N[C@@H](CCCNC(=N)N)C(=O)N[C@@H](Cc1ccccc1)C(=O)N[C@@H](CS)C(=O)N[C@H](C(=O)N[C@@H](CS)C(=O)N[C@H](C(=O)NCC(=O)N[C@@H](CCCNC(=N)N)C(N)=O)C(C)C)C(C)C` (H-RGGRLCYCRRRFCVCVGR-NH2): the MIC with Staphylococcus aureus came to 8 µM (≈ 17.3 µg/mL); in the data set with Bacillus subtilis, 2 µM (≈ 4.32 µg/mL); in [1] it was 4 µM (≈ 8.64 µg/mL); with Enterococcus faecalis, 8 µM (≈ 17.3 µg/mL); in the data set on Klebsiella pneumoniae it was 8 µM (≈ 17.3 µg/mL); with Escherichia coli, 8 µM (≈ 17.3 µg/mL). For the same molecule, the MIC in the data set with Pseudomonas aeruginosa came out at 4 µM (≈ 8.64 µg/mL). Besides, the HC10 in the data set on Erythrocyte was determined as 20 µM. Further, the CC50 at 1 h in data set [2] worked out at 14.2 µM.

On to `CC[C@H](C)[C@H](NC(=O)CN)C(=O)NCC(=O)N[C@@H](C)C(=O)N[C@H](C(=O)N[C@@H](CC(C)C)C(=O)N[C@@H](CCCCN)C(=O)N[C@H](C(=O)N[C@@H](CC(C)C)C(=O)N[C@H](C(=O)N[C@H](C(=O)NCC(=O)N[C@@H](CC(C)C)C(=O)N1CCC[C@H]1C(=O)N[C@@H](C)C(=O)N[C@@H](CC(C)C)C(=O)N[C@H](C(=O)N[C@@H](CO)C(=O)N[C@@H](Cc1c[nH]c2ccccc12)C(=O)N[C@H](C(=O)N[C@@H](CCCCN)C(=O)N[C@@H](CCCNC(=N)N)C(=O)N[C@@H](CCCCN)C(=O)N[C@@H](CCCNC(=N)N)C(=O)N[C@@H](CCC(N)=O)C(=O)N[C@@H](CCC(N)=O)C(N)=O)[C@@H](C)CC)[C@@H](C)CC)[C@@H](C)O)[C@@H](C)O)C(C)C)C(C)C` [MELITTIN], for which the MIC came out at 2 µM (≈ 5.69 µg/mL) with Enterococcus faecalis and 16 µM (≈ 45.5 µg/mL) in the data set on Klebsiella pneumoniae.

Regarding H-ARARRRRFRARA-NH2, the MIC was 128 µM with Staphylococcus aureus; 64 µM in the data set on Bacillus subtilis; 128 µM in data set [1]; above 128 µM in the data set with Enterococcus faecalis; above 128 µM in the data set with Klebsiella pneumoniae; above 128 µM in the data set with Escherichia coli. The MIC in the data set with Pseudomonas aeruginosa was above 128 µM. In addition, the HC10 in the data set on Erythrocyte was above 256 µM. The CC50 at 1 h in [2] was above 128 µM.

H-FRFRFRRRRFRFRFRF-NH2: the MIC with Staphylococcus aureus is 8 µM; with Bacillus subtilis it was 4 µM; in data set [1], 2 µM; in the data set on Enterococcus faecalis, 8 µM; in the data set on Klebsiella pneumoniae it was 8 µM; with Escherichia coli, 8 µM. The MIC in the data set on Pseudomonas aeruginosa was 8 µM. Besides, the HC10 in the data set with Erythrocyte is above 256 µM. Moreover, in [2], the CC50 at 1 h worked out at 10.3 µM.

As to H-FRFRRRRFRFRF-NH2, the MIC in the data set with Staphylococcus aureus is 4 µM; in the data set on Bacillus subtilis it was 2 µM; in data set [1] it was 4 µM; in the data set with Enterococcus faecalis it was 16 µM; with Klebsiella pneumoniae it was 8 µM; in the data set on Escherichia coli, 8 µM. Besides, in the data set with Pseudomonas aeruginosa, the minimum inhibitory concentration (MIC) turned out to be 8 µM. In addition, in the data set with Erythrocyte, the HC10 was found to be 237 µM. Also, in data set [2], the CC50 at 1 h came out at 42 µM.

For the molecule H-IKIKRRRFKIKI-NH2, the MIC with Staphylococcus aureus stood at 32 µM; in the data set with Bacillus subtilis, 4 µM; in data set [1], 8 µM; with Enterococcus faecalis it was 64 µM; in the data set on Klebsiella pneumoniae, 64 µM; in the data set with Escherichia coli, 64 µM. The MIC in the data set on Pseudomonas aeruginosa stood at 16 µM. Also, the HC10 with Erythrocyte is above 256 µM. Also, in data set [2], the CC50 at 1 h is above 128 µM.

For the origin of these results see ChEMBL document CHEMBL5154808, “Novel β-Hairpin Antimicrobial Peptides Containing the β-Turn Sequence of -RRRF- Having High Cell Selectivity and Low Incidence of Drug Resistance” (J Med Chem, 2022).
